Measurements from article PMC8820617, “Machine learning-driven identification of drugs inhibiting cytochrome P450 2C9” (PLoS Computational Biology, 2022).
Entries after “also recorded” stand apart in the source; their conditions may differ. Like-named read-outs stand apart in the source and are kept apart here.

How the values were obtained:
[1] = molecular target: T1, CYP2C9 supersomes (Homo sapiens, UniProt P11712); assay: Inhibition of CYP2C9 on recombinant supersomes (diclofenac 4-hydroxylation, LC/MS-MS); conditions: for IC50: IC50 values determined with CYP2C9 supersomes, substrate diclofenac 5 μM, recombinant supersomes
Protocol: (§1) A CYP2C9-specific substrate (diclofenac) and recombinant supersomes were incubated with and without the study compounds (according to the protocol optimized by the Service Provider Admescope (Finland)). The concentrations of the studied compounds were 0.3, 1, 3, 10, 20, 30, 50, 60, 70, 90 and 100 μM. […] The enzymatic reactions were started after 6 min of preincubation by adding NADPH and terminated after 15 min by adding ice-cold acetonitrile. The supernatant was collected and centrifuged for analyses. The samples were analyzed by LC/MS-MS to determine the level of metabolites in the absence and presence of a candidate molecule. Spiked standard samples were not used, but quantification based on relative peak areas was performed (solvent control = 100%). The disappearance was evaluated as relative LC/MS peak areas, and the 0-min time points were marked as 100%. The disappearance rate was used to calculate the half-life and in vitro clearance. For details of the method, see S2 Text.
(§2) Details of analytical method for inhibition tests using CYP2C9 supersomes and calculation of IC50
(§3) Test compound concentrations: Test compound Test concentrations (µM)
(§4) Diclofenac at 5 µM for CYP2C9
(§5) Substrates and concentrations:
(§6) Instrumentation: Waters Acquity UPLC + Thermo TSQ Endura triple quadrupole MS
(§7) The IC50 value for the test compound was determined by fitting following equation to the data
(§8) A% = percentual activity remaining
(§9) Top = the upper plateau of percentual activity (constrained to 100)
(§10) Bottom = the lower plateau of percentual activity (constrained to 0)
(§11) [I] = inhibitor concentration
(§12) (1 picture or pasted object on this page, not shown here)

[2] = system: HepG2 cells expressing CYP2C9; assay: Cytotoxicity (MTS assay) in HepG2 cells expressing CYP2C9; conditions: for min [c]: minimal concentration that increases the cytotoxicity: HepG2 cells expressing CYP2C9; for min [c]: minimal concentration that increases the cytotoxicity / Increased cytotoxicity in HepG2 cells expressing CYP2C9 (yes/no): threshold cell viability 80%; for Increased cytotoxicity in HepG2 cells expressing CYP2C9 (yes/no) / % living HepG2 cells expressing CYP2C9 after incubation with the min [c]: MTS assay; for Increased cytotoxicity in HepG2 cells expressing CYP2C9 (yes/no): compared with wild-type HepG2 cells; for % living HepG2 cells expressing CYP2C9 after incubation with the min [c]: at min [c] of the compound
[3] = molecular target: T1, CYP2C9 supersomes; assay: Metabolism assays with recombinant CYP2C9 supersomes (UPLC/HR-MS); conditions: incubation with recombinant CYP2C9 supersomes
[4] = molecular target: T2, CYP2C9 (Homo sapiens, UniProt P11712); assay: Inhibition of CYP2C9 activity in HepG2 cells expressing CYP2C9 (P450-Glo CYP2C9 assay with Luciferin-H); conditions: for Inhibition of CYP2C9 activity in HepG2 cells (yes/no) / Dose-dependent inhibition (yes/no): HepG2 cells expressing CYP2C9; for Inhibition of CYP2C9 activity in HepG2 cells (yes/no): concentration range with cell viability > 80%; for Dose-dependent inhibition (yes/no): five-step dilution series 0.5 to 50 μM; for Any effect (inhibition of CYP2C9 activity and/or cytotoxicity on HepG2 cells expressing CYP2C9): over the range of concentrations used
[5] = molecular target: T2, CYP2C9
[6] = system: HepG2 cells expressing CYP2C9; conditions: human
[7] = molecular target: T2, CYP2C9; assay: Inhibition of CYP2C9 on recombinant supersomes (diclofenac 4-hydroxylation, LC/MS-MS); conditions: human, recombinant CYP2C9 supersomes, probe diclofenac 5 μM (4-hydroxylation), IC50 values determined with CYP2C9 supersomes, substrate diclofenac 5 μM; recombinant supersomes
Protocol: as §1, §2, §3, §4, §5, §6, §7, §8, §9, §10, §11, §12

T1 sequence (P11712 whole entry): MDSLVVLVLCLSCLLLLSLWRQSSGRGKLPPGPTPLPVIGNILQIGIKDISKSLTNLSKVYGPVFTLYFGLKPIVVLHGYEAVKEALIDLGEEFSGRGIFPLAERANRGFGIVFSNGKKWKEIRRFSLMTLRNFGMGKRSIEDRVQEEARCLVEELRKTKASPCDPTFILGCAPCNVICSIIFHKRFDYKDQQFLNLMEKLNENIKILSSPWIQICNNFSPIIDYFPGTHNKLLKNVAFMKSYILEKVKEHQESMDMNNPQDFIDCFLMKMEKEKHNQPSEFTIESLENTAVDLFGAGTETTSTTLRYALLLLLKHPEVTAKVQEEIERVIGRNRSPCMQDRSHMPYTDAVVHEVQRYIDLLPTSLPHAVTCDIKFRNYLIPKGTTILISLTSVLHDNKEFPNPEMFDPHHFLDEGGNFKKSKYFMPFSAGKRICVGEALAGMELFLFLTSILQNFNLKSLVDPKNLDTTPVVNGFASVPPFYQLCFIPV
T2 sequence (P11712 whole entry): as above

Row | Compound | IC50 [1] [µM] | min [c]: minimal concentration that increases the cytotoxicity [2] [µM] | Increased cytotoxicity in HepG2 cells expressing CYP2C9 (yes/no) [2] | % living HepG2 cells expressing CYP2C9 after incubation with the min [c] [2] [%] | Inhibition of CYP2C9 activity in HepG2 cells (yes/no) [4] | Dose-dependent inhibition (yes/no) [4] | other results
1 | CCN1CCN(Cc2ccc(Nc3ncc(F)c(-c4cc(F)c5nc(C)n(C(C)C)c5c4)n3)nc2)CC1 [Abemaciclib] | > 100 | 5 | yes | 30 | no | no | Inhibition effect on CYP2C9 (in words) ([1]; CYP2C9 supersomes): no direct inhibition; also recorded: No any inhibition effect; Metabolism by CYP2C9 (in words) [3]: metabolized by CYP2C9
2 | CC(C)Oc1ccc(S(=O)(=O)N2CCN(c3ccc(-c4ncco4)c(OCC(=O)O)c3)CC2)cc1 [Asapiprant] | 46 |  | no |  | yes | yes | 
3 | CC(=O)N1CCN(CCOc2ccc(C3CCN(C4=Nn5c(nnc5C(F)(F)F)CC4)CC3)cc2)CC1 [Azd3514] |  | 20 | yes | 60 | no | no | 
4 | O=c1[nH]c2ccccc2c(=O)n1CCCN1CCN(c2cccc(Cl)c2)CC1 [Cloperidone] | 17.7 | 100 | yes | 40 | yes | yes | Inhibition effect on CYP2C9 (in words) ([1]; CYP2C9 supersomes): strongly inhibit; Cytotoxicity after incubation with HepG2 cells expressing CYP2C9 (in words) [2]: increased cytotoxicity; Metabolism by CYP2C9 (in words) [3]: metabolized by CYP2C9
5 | Cc1nc(Nc2ncc(C(=O)Nc3c(C)cccc3Cl)s2)cc(N2CCN(CCO)CC2)n1 [Dasatinib] |  | 20 | yes | 45 | yes | yes | 
6 | C[C@H](Nc1ncnc2[nH]cnc12)c1cc2cccc(Cl)c2c(=O)n1-c1ccccc1 [Duvelisib] | 52 |  | no |  | yes | yes | 
7 | CN(c1nccc(=O)[nH]1)C1CCN(c2nc3ccccc3n2Cc2ccc(F)cc2)CC1 [Mizolastine] |  | 50 | yes | 60 | no | no | 
8 | COc1ccc(OC(=O)N(CC(=O)O)Cc2ccc(OCCc3nc(-c4ccccc4)oc3C)cc2)cc1 [Muraglitazar] |  |  | no |  | no | no | Any effect (inhibition of CYP2C9 activity and/or cytotoxicity on HepG2 cells expressing CYP2C9) [4]: did not show any effect
9 | CN(c1ncccc1CNc1nc(Nc2ccc3c(c2)CC(=O)N3)ncc1C(F)(F)F)S(C)(=O)=O [Pf-562271] |  | 10 | yes | 65 | yes | no | 
10 | Cc1ccccc1-n1c(/C=C/c2ccccn2)nc2ccccc2c1=O [Piriqualone] | 10.9 | 75 | yes | 0 | yes | yes | 
11 | O=C1NCCN1CCN1CCC(c2cn(-c3ccc(F)cc3)c3ccc(Cl)cc23)CC1 [Sertindole] | 40 | 10 | yes | 60 | yes | yes | 
12 | CC(C)(C)C(=O)Oc1ccc(S(=O)(=O)Nc2ccccc2C(=O)NCC(=O)O)cc1 [Sivelestat] |  |  | no |  | no | no | Any effect (inhibition of CYP2C9 activity and/or cytotoxicity on HepG2 cells expressing CYP2C9) [4]: did not show any effect
13 | O=C(O[C@H]1CN2CCC1CC2)N(Cc1cc(F)c(F)c(F)c1)c1cccc(F)c1 [Tarafenacin] | > 100 |  |  |  |  |  | Inhibition effect on CYP2C9 (in words) ([1]; recombinant enzyme): weak inhibition effect; Dose-dependent inhibition (yes/no) [5]: no; Inhibition of CYP2C9 activity in HepG2 cells (yes/no) [5]: yes; % living HepG2 cells expressing CYP2C9 after incubation with the min [c] [6]: 0%; min [c]: minimal concentration that increases the cytotoxicity [6]: 50 µM
14 | CCCSc1nc(N[C@@H]2C[C@H]2c2ccc(F)c(F)c2)c2nnn([C@@H]3C[C@H](OCCO)[C@@H](O)[C@H]3O)c2n1 [Ticagrelor] | 11.8 |  | no |  | yes | yes | 
15 | Clc1ccc(Nc2nnc(Cc3ccncc3)c3ccccc23)cc1 [Vatalanib] | < 18 | 20 | yes | 50 | yes | yes | IC50 at 15 min [7]: < 0.3 µM; Inhibition effect on CYP2C9 (in words) ([1]; CYP2C9 supersomes): strongly inhibit; Metabolism by CYP2C9 (in words) [3]: metabolized by CYP2C9
16 | Bifeprofen |  | 75 | yes | 50 | yes | yes | 
17 | Ciltoprazine |  | 75 | yes | 0 | yes | no | 
